# Test results: ChEMBL document CHEMBL3217717, “Synthesis and antiproliferative activity of novel erythromycin derivatives” (Medchemcomm, 2010)
# Experiments:
# Assay type in all cases: functional, cell-based
# [1] = Cytotoxicity against human HT1080 cells assessed as growth inhibition after 48 hrs by MTT assay; details: HT-1080, 48 h
# [2] = Cytotoxicity against human SGC7901 cells assessed as growth inhibition after 48 hrs by MTT assay; details: SGC-7901, 48 h
# [3] = system: KB; experiment: Cytotoxicity against human KB cells assessed as growth inhibition after 48 hrs by MTT assay
Compound,IC50 [1],IC50 [2],IC50 [3]
CC[C@H]1OC(=O)[C@H](C)[C@@H](O[C@H]2C[C@@](C)(OC)[C@@H](O)[C@H](C)O2)[C@H](C)[C@@H](O[C@@H]2O[C@H](C)C[C@H](N(C)CC(=O)N(C)[C@H]3C[C@@H](C)O[C@@H](O[C@@H]4[C@@H](C)[C@H](O)[C@@H](C)C(=O)O[C@H](CC)[C@@](C)(O)[C@H](O)[C@@H](C)/C(=N\OCOCCOC)[C@H](C)C[C@@]4(C)O)[C@@H]3O)[C@H]2O)[C@](C)(OC)C[C@@H](C)C(=O)[C@H](C)[C@@H](O)[C@]1(C)O,> 100 µM,> 100 µM,> 100 µM
CC[C@H]1OC(=O)[C@H](C)[C@@H](O[C@H]2C[C@@](C)(OC)[C@@H](O)[C@H](C)O2)[C@H](C)[C@@H](O[C@@H]2O[C@H](C)C[C@H](N(C)CC(=O)N(C)[C@H]3C[C@@H](C)O[C@@H](O[C@@H]4[C@@H](C)[C@H](O[C@H]5C[C@@](C)(OC)[C@@H](O)[C@H](C)O5)[C@@H](C)C(=O)O[C@H](CC)[C@@](C)(O)[C@H](O)[C@@H](C)C(=O)[C@H](C)C[C@@]4(C)O)[C@@H]3O)[C@H]2O)[C@](C)(O)C[C@@H](C)C(=O)[C@H](C)[C@@H](O)[C@]1(C)O,> 100 µM,26.5 µM,> 100 µM
CC[C@H]1OC(=O)[C@H](C)[C@@H](O)[C@H](C)[C@@H](O[C@@H]2O[C@H](C)C[C@H](N(C)CCN(C)[C@H]3C[C@@H](C)O[C@@H](O[C@@H]4[C@@H](C)[C@H](O)[C@@H](C)C(=O)O[C@H](CC)[C@@](C)(O)[C@H](O)[C@@H](C)C(=O)[C@H](C)C[C@@]4(C)OC)[C@@H]3O)[C@H]2O)[C@](C)(OC)C[C@@H](C)C(=O)[C@H](C)[C@@H](O)[C@]1(C)O,> 100 µM,> 100 µM,> 100 µM
CC[C@H]1OC(=O)[C@H](C)[C@@H](O)[C@H](C)[C@@H](O[C@@H]2O[C@H](C)C[C@H](N(C)CCN(C)[C@H]3C[C@@H](C)O[C@@H](O[C@@H]4[C@@H](C)[C@H](O[C@H]5C[C@@](C)(OC)[C@@H](O)[C@H](C)O5)[C@@H](C)C(=O)O[C@H](CC)[C@@](C)(O)[C@H](O)[C@@H](C)C(=O)[C@H](C)C[C@@]4(C)OC)[C@@H]3O)[C@H]2O)[C@](C)(OC)C[C@@H](C)C(=O)[C@H](C)[C@@H](O)[C@]1(C)O,> 100 µM,> 100 µM,97 µM
CC[C@H]1OC(=O)[C@H](C)[C@@H](O[C@H]2C[C@@](C)(OC)[C@@H](O)[C@H](C)O2)[C@H](C)[C@@H](O[C@@H]2O[C@H](C)C[C@H](N(C)CCN(C)[C@H]3C[C@@H](C)O[C@@H](O[C@@H]4[C@@H](C)[C@H](O[C@H]5C[C@@](C)(OC)[C@@H](O)[C@H](C)O5)[C@@H](C)C(=O)O[C@H](CC)[C@@](C)(O)[C@H](O)[C@@H](C)C(=O)[C@H](C)C[C@@]4(C)OC)[C@@H]3O)[C@H]2O)[C@](C)(OC)C[C@@H](C)C(=O)[C@H](C)[C@@H](O)[C@]1(C)O,8.1 µM,20 µM,17.7 µM
CC[C@H]1OC(=O)[C@H](C)[C@@H](O[C@H]2C[C@@](C)(OC)[C@@H](O)[C@H](C)O2)[C@H](C)[C@@H](O[C@@H]2O[C@H](C)C[C@H](N(C)C(=O)CN(C)[C@H]3C[C@@H](C)O[C@@H](O[C@@H]4[C@@H](C)[C@H](O[C@H]5C[C@@](C)(OC)[C@@H](O)[C@H](C)O5)[C@@H](C)C(=O)O[C@H](CC)[C@@](C)(O)[C@H](O)[C@@H](C)/C(=N\OCOCCOC)[C@H](C)C[C@@]4(C)O)[C@@H]3O)[C@H]2O)[C@](C)(OC)C[C@@H](C)C(=O)[C@H](C)[C@@H](O)[C@]1(C)O,> 100 µM,> 100 µM,> 100 µM
CC[C@H]1OC(=O)[C@H](C)[C@@H](O)[C@H](C)[C@@H](O[C@@H]2O[C@H](C)C[C@H](N(C)CCN(C)[C@H]3C[C@@H](C)O[C@@H](O[C@@H]4[C@@H](C)[C@H](O[C@H]5C[C@@](C)(OC)[C@@H](O)[C@H](C)O5)[C@@H](C)C(=O)O[C@H](CC)[C@@](C)(O)[C@H](O)[C@@H](C)/C(=N\O)[C@H](C)C[C@@]4(C)OC)[C@@H]3O)[C@H]2O)[C@](C)(OC)C[C@@H](C)/C(=N/O)[C@H](C)[C@@H](O)[C@]1(C)O,42.8 µM,12.7 µM,38.2 µM
